Data taken from article PMC12608155, “Discovery of Potential Antileishmanial Compounds Through Phenotypic Screening of an Alkaloid Library” (Molecules, 2025).
Read-outs that look alike come from different tables or passages of the source.

Assays:
[1] = system: L. donovani IRFP axenic amastigotes; assay: Primary single-concentration screening on axenic amastigotes, growth inhibition at 72 h; format: cell-based, Leishmania donovani; conditions: Leishmania donovani, axenic amastigotes
[2] = system: L. donovani IRFP axenic amastigotes; assay: Dose-response assay on axenic amastigotes; format: cell-based, Leishmania donovani; conditions: Leishmania donovani
Method: The objective of the present study was to identify new antileishmanial drug candidates by screening a commercial library of plant-derived alkaloids using a platform based on axenic amastigotes of L. donovani IRFP—the causative agent of VL—genetically modified to emit infrared fluorescence during their viable stage (hereafter referred to as L. donovani IRFP). To this end, single-dose assays at 10 μM and 1 μM, as well as dose–response assays, were performed. Compounds showing significant activity in the initial screening were subsequently clustered according to chemical structure using the DataWarrior tool, and representative compounds were further evaluated in dose response assays against axenic amastigotes.
Female Balb/c mice aged from 6 to 8 weeks were intraperitoneally inoculated with 1.5 × 10^9 infective L. donovani IRFP metacyclic promastigotes. Between 8 and 12 weeks after infection, mice were humanely euthanised and bone marrow was collected from the femurs and tibias of both hind limbs. The bones were cut at both ends, and prewarmed PBS was flushed through the medullary cavity using a syringe fitted with a 27G needle, to extract the bone marrow cells. The resulting cell suspension was filtered through a 100 µm cell strainer and centrifuged at 2500 rpm for 10 min at room temperature. To obtain free amastigotes, the pelleted cells were resuspended within a 75 mL ventilated flask in amastigote culture medium (15 mM KCl; 136 mM KH2PO4; 10 mM K2HPO4.3H2O; 0.5 mM MgSO4.7 H2O; 24 mM NaHCO3; 22 mM glucose; 1 mM glutamine, 1x RPMI 1640 vitamin mix (Sigma-Aldrich, Merck, Darmstadt, Germany), 10 mM folic acid, […], 1x RPMI amino acid mix (Sigma-Aldrich, Merck, Darmstadt, Germany), […], antibiotic mixture, 25 mM MES, 10% FBS (Gibco, ThermoFisher Scientific, Waltham, MA, USA) and incubated at 37 °C in a humidified atmosphere containing 5% CO2 [46].
The efficacy of the selected compounds was assessed by measuring near-infrared fluorescence (700 nm) using an Odyssey Infrared Imaging System (Li-Cor, Lincoln, NE, USA) following the previously described protocols.

[3] = system: L. donovani IRFP intramacrophagic amastigotes; assay: Dose-response assay on ex vivo infected splenic explants (intramacrophagic amastigotes); format: cell-based, Leishmania donovani; conditions: Leishmania donovani, Splenocyte; primary cultures of infected mouse splenocytes; read-out: EC50 Intramacrophagic Amastigotes
[4] = Cytotoxicity in RAW 264.7 cells (alamarBlue, 72 h); conditions: mouse
Method: (§1) To this end, we calculated SIs from 16 preselected results from the ex vivo system. With this aim, dose–response curves were performed in duplicate across at least three independent experiments using RAW 264.7 mouse macrophages (as a model of host cells harboring amastigotes) and HepG2 (as a model for assessing systemic toxicity).
(§2) To evaluate the safety of the selected compounds, two cell lines were employed: RAW 264.7 (a mouse macrophage-derived cell line) and HepG2 (a human hepatoma cell line). Furthermore, to determine the intestinal tolerance relevant to potential oral administration, mouse intestinal organoids were prepared.
(§3) RAW 264.7 and HepG2 were routinely cultured under standard conditions. RAW 264.7 cells were maintained in RPMI medium (Gibco) supplemented with, 25 mM HEPES, 24 mM NaHCO3, 2 mM L-glutamine, mixture of antibiotics and 10% FBS. HepG2 cells were cultured in DMEM/F-12 (Gibco) and supplemented 10% of FBS. For cytotoxicity assays, 10,000 cells per well were seeded into 96-well plates and incubated overnight at 37 °C with 5% of CO2. Subsequently, 2-fold serial dilutions of the compounds were added and incubated for 72 h. Cell viability using the alamarBlue™ assay according to the manufacturer’s instructions, and fluorescence was measured with a Varioskan™ LUX microplate reader (ThermoFisher Scientific, Waltham, MA, USA). Non-linear regression analyses were performed using SigmaPlot^TM software (version 10.0) to calculate CC50. Data were obtained from at least three independent experiments performed in duplicate.

[5] = Cytotoxicity in HepG2 cells (alamarBlue, 72 h); conditions: human
Method: as §1, §2, §3

[6] = system: axenic amastigotes of L. amazonensis; set-up: method as in PMID 25029171; conditions: compared with glucantime; cited from earlier work
[7] = system: Leishmania amazonensis; set-up: method as in PMID 25029171; conditions: cited from earlier work
[8] = experiment 1, 72 h, read-out: Growth Inhibition (%) at 72h, 1 µM_Exp1
[9] = experiment 2, 72 h, read-out: Growth Inhibition (%) at 72h, 1 µM_Exp2
[10] = experiment 1, 72 h, read-out: Growth Inhibition (%) at 72h, 10 µM_Exp1
[11] = experiment 2, 72 h, read-out: Growth Inhibition (%) at 72h, 10 µM_Exp2

COc1ccc2c(c[n+](C)c3c4cc5c(cc4ccc23)OCO5)c1OC [Chelerythrine]
inhibition at 1 µM [1, 8]: 97.2% | inhibition at 1 µM [1, 9]: 95.7% | inhibition at 10 µM [1, 10]: 100% | inhibition at 10 µM [1, 11]: 101% | IC50 [2]: 80 ± 10 nM | EC50 [3]: 1610 ± 50 nM | CC50 at 72 h [4]: 5510 ± 160 nM | CC50 at 72 h [5]: 5500 ± 640 nM | in vitro IC50 values against axenic amastigotes of L. amazonensis [6]: very similar to those of glucantime | antileishmanial effect in vivo [7]: moderate

COc1cc2c[n+](C)c3c4cc5c(cc4ccc3c2cc1OC)OCO5 [Nitidine]
inhibition at 1 µM [1, 8]: 45% | inhibition at 1 µM [1, 9]: 69.6% | inhibition at 10 µM [1, 10]: 100% | inhibition at 10 µM [1, 11]: 99.7% | IC50 [2]: 270 ± 10 nM | EC50 [3]: 650 ± 30 nM | CC50 at 72 h ([4]; RAW 264.7 macrophage cells): 2010 ± 160 nM | CC50 at 72 h ([5]; HepG2 hepatoma cells): 490 ± 20 nM | in vitro IC50 values against axenic amastigotes of L. amazonensis [6]: very similar to those of glucantime | antileishmanial effect in vivo [7]: moderate
